Square brackets hold non-standard residues; d marks the D form. Peptide text beside a SMILES is read from it. NMeY = CN[C@@H](Cc1ccc(O)cc1)C(=O)O
Target: Bifunctional purine biosynthesis protein ATIC (Homo sapiens, UniProt P31939)
Experiment: Enzyme Inhibition Assay
Settings: 25 °C
Text: Enzyme inhibition using aminoimidazole carboxamide ribonucleotide transformylase/inosine monophosphate cyclohydrolase (ATIC).

Chain of Bifunctional purine biosynthesis protein ATIC (P31939 whole entry): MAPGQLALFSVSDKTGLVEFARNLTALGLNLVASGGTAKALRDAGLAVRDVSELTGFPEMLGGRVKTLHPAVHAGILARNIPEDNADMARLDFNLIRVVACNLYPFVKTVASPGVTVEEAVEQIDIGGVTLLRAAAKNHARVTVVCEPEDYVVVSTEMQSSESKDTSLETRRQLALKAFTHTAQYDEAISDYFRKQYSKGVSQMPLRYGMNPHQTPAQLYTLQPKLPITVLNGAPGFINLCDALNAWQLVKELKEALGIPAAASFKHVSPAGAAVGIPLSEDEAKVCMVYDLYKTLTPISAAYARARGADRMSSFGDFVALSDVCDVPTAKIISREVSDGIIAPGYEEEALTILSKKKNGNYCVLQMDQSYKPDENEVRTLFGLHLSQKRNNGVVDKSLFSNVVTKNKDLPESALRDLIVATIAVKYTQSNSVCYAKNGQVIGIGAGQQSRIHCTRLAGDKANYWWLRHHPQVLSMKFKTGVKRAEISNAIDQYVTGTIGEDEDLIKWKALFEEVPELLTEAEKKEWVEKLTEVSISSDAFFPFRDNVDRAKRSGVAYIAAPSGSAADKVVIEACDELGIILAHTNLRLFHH

Row | SMILES | Ki [µM]
1 | CCNC(=O)[C@H](Cc1ccc(OC)cc1)NC(=O)[C@H](CCCN=C(N)N)NC(C)=O [RY Analogue, 11] (Ac-Arg-Tyr(Me)-NHEt) | 87
2 | CCNC(=O)[C@H](Cc1ccccc1)NC(=O)[C@H](CCCN=C(N)N)NC(C)=O [RY Analogue, 9] | 339
3 | CCNC(=O)[C@H](Cc1ccc(C#N)cc1)NC(=O)[C@H](CCCN=C(N)N)NC(C)=O [RY Analogue, 12] | 56
4 | CCNC(=O)[C@H](Cc1ccc(O)cc1)NC(=O)[C@H](CCCN=C(N)N)NC(C)=O [RY Analogue, 8] (Ac-Arg-Tyr-NHEt) | 84
5 | CCNC(=O)[C@H](Cc1ccc(F)cc1)NC(=O)[C@H](CCCN=C(N)N)NC(C)=O [RY Analogue, 10] | 135

Second part, the compound after the results:

Row | Ki [µM] | SMILES
6 | 59 | CCNC(=O)[C@H](Cc1ccc(B(O)O)cc1)NC(=O)[C@H](CCCN=C(N)N)NC(C)=O [RY Analogue, 13]
7 | 2.5 | CCNC(=O)[C@H](Cc1ccc([N+](=O)[O-])cc1)N(C)C(=O)[C@H](CCCN=C(N)N)NC(C)=O [RY Analogue, 17]
8 | 145 | CCNC(=O)[C@H](Cc1ccc(O)cc1)N(C)C(=O)[C@H](CCCN=C(N)N)NC(C)=O [RY Analogue, 16] (Ac-Arg-[NMeY]-NHEt)
9 | 0.685 | CCNC(=O)[C@H](Cc1ccc([N+](=O)[O-])cc1)NC(=O)[C@H](CCCN=C(N)N)NC(C)=O [RY Analogue, 14]
